Measured values from paper PMC4116524, “A virtual screen identified C96 as a novel inhibitor of phosphatidylinositol 3-kinase that displays potent preclinical activity against multiple myeloma in vitro and in vivo” (Oncotarget, 2014).

Columns and labels:
MM cell [1] = tested on: MM cell; parameters: method as in PMID 24013662; conditions: cited from earlier work
MM cell [2] = tested on: MM cell; parameters: method as in PMID 20505158; conditions: cited from earlier work
PI3Kγ and δ = tested on: PI3Kγ and δ; parameters: method as in PMID 20505158; conditions: read-out: IC50s in inhibiting PI3K activity; cited from earlier work
[3] = tested on: AKT phosphorylation in LP1 and JJN3 cells; assay: IGF-1-stimulated AKT phosphorylation, immunoblotting (Figure 3A); assay type: cell-based; conditions: 100 μM, 2 hrs, IGF-1 15 min
Protocol: To elucidate this specificity, we first evaluated its effects on IGF-1R because IGF-1R as a receptor tyrosine kinase activates PI3K in the presence of IGF-1. To exclude the potential effects of C96 on IGF-1 signaling, LP1 and JJN3 cells were starved overnight followed by C96 or S14161 treatment for 2 hrs, and IGF-1 stimulation for 15 min. As expected, IGF-1 triggered AKT phosphorylation but it was suppressed by both C96 and the proven PI3K inhibitor S14161 without affecting total AKT expression (Figure 3A). […] Next, we evaluated other kinases including non-receptor kinase c-Src and a PI3K parallel kinase ERK which transduces external cellular signals. Both LP1 and JJN3 cells were treated with C96 at increasing concentrations that inhibited AKT and mTOR activation (Figure 2C).
Figure 3 C96 inhibits AKT but not IGF-1R, ERK or c-Src kinase activation (A) LP1 and JJN3 cells were starved overnight, then treated with 100 (μM of C96 or S14161 for 2 hrs, followed by IGF-1 (100 ng/mL) for 15 min. After incubation, cells were harvested and the expression of p-AKT, p-IGF-1R, total AKT (T-AKT), and IGF-1R proteins were detected by immunoblotting. (B) LP1 and JJN3 were treated with C96 at indicated concentrations for 24 hrs followed by immunoblotting assay for the expression of p-Src, c-Src, p-ERK, and ERK. GAPDH was used as a loading control. […]

## COc1c(OCCCN2CCOCC2)ccc2c1N=C(NC(=O)c1cnc(N)nc1)N1CCN=C21 [BAY80-6946]
MM cell [1]
  concentration required to inhibit MM cell proliferation: more than 1000 nM

## CC[C@H](Nc1ncnc2[nH]cnc12)c1nc2cccc(F)c2c(=O)n1-c1ccccc1 [CAL-101]
MM cell [2]
  concentration needed to induce MM cell death: more than 10 μM
PI3Kγ and δ
  IC50: ~2.5 nM

## CCOc1cccc2c1OC(c1ccc(F)cc1)C([N+](=O)[O-])=C2 (stereo not shown) [S14161, reference compound]
[3]
  AKT phosphorylation triggered by IGF-1: suppressed
